Tests used:
JIMT-1 [1] = experiment: MTS assay cell viability in JIMT-1; assay type: cell-based, human; settings: 72 hours; for inhibition of cell viability: JIMT-1 (trastuzumab-resistant), 0, 0.1, 0.5, 1, 2, and 5 µM; for cell viability: JIMT-1, 0, 1, and 5 µM
Method: (§1) MDA-MB-231 (Cell seeding numbers: 0.8(M231) x 10^4 cells/wells (confluency ≧ 25%), which is a human triple-negative breast cancer (TNBC) cell line, and JIMT-1 (Cell seeding numbers: 0.8(JIMT) x 10^4 cells/wells (confluency ≧ 25%)), which is a HER2 positive breast cancer (HER2+ BC) cell line, were used in the experiment.
(§2) The above cell lines were cultured in Dulbecco's modified Eagle's medium (DMEM) containing 10% fetal bovine serum (FBS), streptomycin-penicillin (100 U/mL), and Fungizone (0.625 µg/mL) at 5% CO2 and 37°C.
(§3) The human breast cancer cell lines MDA-MB-231 and JIMT-1 were treated with quinazoline-benzimidazole derivatives of Formulas 1-1 to 1-31 at various concentrations of 0, 1, and 5 µM, respectively, for 72 hours, and then cell viability was measured using the MTS assay technique. In the MTS assay, cells were attached to a 96-well plate for 24 hours, treated with the quinazoline-benzimidazole derivative for 72 hours, developed with MTS (3-(4,5-dimethylthiazol-2-yl)-5-(3-carboxymethoxyphenyl)-2-(4-sulfophenyl)-2H-tetrazolium) for 4 hours, and then absorbance was measured at 490 nm using a Spectramax Plus384 microplate analyzer.
(§4) In addition, after treatment with compounds 1-15, 1-16, 1-19, and 1-22 at a concentration of 5 µM for 48 hours in SKBR3 and JIMT-1 cell lines, morphological changes of the cells were observed using an optical microscope, and the results are shown in B of FIG. 4.

JIMT-1 [2] = experiment: Cell morphology by optical microscope in JIMT-1; assay type: cell-based, human; settings: 5 µM, 48 hours
Method: as §4

SKBR3 [3] = experiment: MTS assay cell viability in SKBR3; assay type: cell-based; settings: SKBR3 (trastuzumab-sensitive), 0, 0.1, 0.5, 1, 2, and 5 µM, 72 hours
SKBR3 [4] = experiment: Cell morphology by optical microscope in SKBR3; assay type: cell-based; settings: 5 µM, 48 hours
Method: as §4

MDA-MB-231 = experiment: MTS assay cell viability screening in MDA-MB-231; assay type: cell-based, human; settings: 0, 1, and 5 µM, 72 hours
Method: as §1, §2, §3

tubulin protein [5] = experiment: Western blot of apoptosis-related proteins and tubulin in JIMT-1; assay type: cell-based, human; settings: 5 µM, 48 hours
Method: (§5) Subsequently, after treatment with the compounds of Formulas 1-16 and 1-19 at a concentration of 5 µM for 48 hours in SKBR3 and JIMT-1 cell lines, the degree of apoptosis was measured by flow cytometry through Annexin V/PI staining, and the results are shown in A of FIG. 5. […] After treatment in the same manner as above, expression of apoptosis-related proteins and degradation of tubulin protein were confirmed by western blot, and the results are shown in B of FIG. 5.

[6] = test system: prostate cancer cell line Du145; experiment: MTS assay cell viability in Du145; assay type: cell-based; settings: 0, 0.1, 0.5, 1, 5, and 10 µM, 72 hours
tubulin protein [7] = experiment: Western blot of apoptosis-related proteins and tubulin in SKBR3; assay type: cell-based; settings: 5 µM, 48 hours
Method: as §5

[8] = test system: lung cancer cell line H1299; experiment: MTS assay cell viability in H1299; assay type: cell-based; settings: 0, 0.1, 0.5, 1, 5, and 10 µM, 72 hours
[9] = test system: hepatic cancer cell line HepG2; experiment: MTS assay cell viability in HepG2; assay type: cell-based; settings: 0, 0.1, 0.5, 1, 5, and 10 µM, 72 hours
[10] = test system: HER2, HER family members (HER3 and EGFR), and AKT and MEK; experiment: Western blot of HER2 signaling proteins in JIMT-1; assay type: cell-based, human; settings: 5 µM, 24, 48, and 72 hours
Method: Then, after treatment with the compounds of Formulas 1-16 and 1-19 at a concentration of 5 µM for 24, 48, and 72 hours in a JIMT-1 cell line, protein expression and phosphorylation of HER2, HER family members (HER3 and EGFR), and AKT and MEK of downstream signaling mechanism were confirmed by western blot, and the results are shown in FIG. 7. […] Thereby, it was confirmed that the quinazoline-benzimidazole derivatives of the disclosure have a tyrosine kinase inhibitory effect on HER2 as in the above-described design objective.

[11] = test system: ovarian cancer cell line SKOV3; experiment: MTS assay cell viability in SKOV3; assay type: cell-based; settings: 0, 0.1, 0.5, 1, 5, and 10 µM, 72 hours
SKBR3 [12] = experiment: Annexin V/PI staining flow cytometry in SKBR3; assay type: cell-based; settings: 5 µM, 48 hours
Method: as §5

JIMT-1 [13] = experiment: Cell cycle analysis by propidium iodide flow cytometry in JIMT-1; assay type: cell-based, human; settings: 5 µM, 48 hours, PI staining
Method: In order to confirm this, the following experiments were performed. After treatment with the compounds of Formulas 1-16 and 1-19 at a concentration of 5 µM for 48 hours in a trastuzumab-resistant HER2-positive breast cancer cell JIMT-1, the cells were stained with propidium iodide (PI), and the cell cycle was analyzed according to DNA content using flow cytometry, and the results are shown in A of FIG. 6.

phospho-Histone H3 = phospho-Histone H3 immunocytochemistry in JIMT-1; assay type: cell-based, human; settings: 5 µM, 24 hours
Method: In addition, after treatment with compounds 1-16 and 1-19 at a concentration of 5 µM for 24 hours in a JIMT-1 cell line, expression of phospho-Histone H3, a marker of mitosis, was confirmed by immunocytochemistry, and the results are shown in B of FIG. 6.

[14] = test system: hematological cancer cell line HL-60; experiment: MTS assay cell viability in HL-60; assay type: cell-based; settings: 0, 0.1, 0.5, 1, 5, and 10 µM, 72 hours
JIMT-1 [15] = experiment: Annexin V/PI staining flow cytometry in JIMT-1; assay type: cell-based, human; settings: 5 µM, 48 hours
Method: as §5

[16] = test system: colorectal cancer cell line HCT116; experiment: MTS assay cell viability in HCT116; assay type: cell-based; settings: 0, 0.1, 0.5, 1, 5, and 10 µM, 72 hours

SMILES | inhibition of cell viability (JIMT-1 [1]) | cell viability (JIMT-1 [1]) | morphological changes of the cells (JIMT-1 [2]) | inhibition of cell viability (SKBR3 [3]) | morphological changes of the cells (SKBR3 [4]) | cell viability (MDA-MB-231) | expression of apoptosis-related proteins and degradation of tubulin protein (tubulin protein [5]) | cell viability [6] | expression of apoptosis-related proteins and degradation of tubulin protein (tubulin protein [7]) | cell viability [8] | cell viability [9] | activities of HER2, p95HER2, HER3, EGFR, AKT, and MEK [10] | protein expression and phosphorylation of HER2, HER family members (HER3 and EGFR), and AKT and MEK [10] | cell viability [11] | degree of apoptosis (SKBR3 [12]) | cell cycle according to DNA content (JIMT-1 [13]) | expression of phospho-Histone H3, a marker of mitosis (phospho-Histone H3) | cell viability [14] | degree of apoptosis (JIMT-1 [15]) | cell viability [16]
O=c1c2cc(-c3ccc4nc(-c5ccc(Cl)cc5)[nH]c4c3)ccc2ncn1CCN1CCCCC1 [Formula 1-15, 6-(2-(4-Chlorophenyl)-1H-benzo[d]imidazol-6-yl)-3-(2-(piperidin-1-yl)ethyl)quinazolin-4(3H)-one] | concentration-dependent inhibition of cell viability | excellent activity | typical apoptotic morphology | concentration-dependent inhibition of cell viability | typical apoptotic morphology | excellent activity |  |  |  |  |  |  |  |  |  |  |  |  |  | 
O=c1c2cc(-c3ccc4nc(-c5ccc(F)c(Cl)c5)[nH]c4c3)ccc2ncn1CCN1CCCCC1 [Formula 1-16] | concentration-dependent inhibition of cell viability | excellent activity | typical apoptotic morphology | concentration-dependent inhibition of cell viability | typical apoptotic morphology | excellent activity | apoptosis effect by inhibiting tubulin polymerization | effectively inhibited | apoptosis effect by inhibiting tubulin polymerization | effectively inhibited | effectively inhibited | effectively inhibited | decreased in a time-dependent manner | effectively inhibited | effectively induced early and late apoptosis | G2/M phase cell cycle arrest | increased abnormal expression of a phospho-Histone H3 protein | effectively inhibited | effectively induced early and late apoptosis | effectively inhibited
Cc1ccc(-c2nc3ccc(-c4ccc5ncn(CCN6CCCCC6)c(=O)c5c4)cc3[nH]2)cc1 [Formula 1-19] | concentration-dependent inhibition of cell viability | excellent activity | typical apoptotic morphology | concentration-dependent inhibition of cell viability | typical apoptotic morphology | excellent activity | apoptosis effect by inhibiting tubulin polymerization | effectively inhibited | apoptosis effect by inhibiting tubulin polymerization | effectively inhibited | effectively inhibited | effectively inhibited | decreased in a time-dependent manner | effectively inhibited | effectively induced early and late apoptosis | G2/M phase cell cycle arrest | increased abnormal expression of a phospho-Histone H3 protein | effectively inhibited | effectively induced early and late apoptosis | effectively inhibited
O=c1c2cc(-c3ccc4nc(-c5ccc(Cl)cn5)[nH]c4c3)ccc2ncn1CCN1CCCCC1 [Formula 1-22, 6-(2-(5-Chloropyridin-2-yl)-1H-benzo[d]imidazol-6-yl)-3-(2-(piperidin-1-yl)ethyl)quinazolin-4(3H)-one] | concentration-dependent inhibition of cell viability | excellent activity | typical apoptotic morphology | concentration-dependent inhibition of cell viability | typical apoptotic morphology | excellent activity |  |  |  |  |  |  |  |  |  |  |  |  |  | 

— patent EP4763840A1, “NOVEL QUINAZOLINE-BENZIMIDAZOLE DERIVATIVE OR PHARMACEUTICALLY ACCEPTABLE SALT THEREOF AND USE THEREOF” (Korea University Research and Business Foundation, priority 2023, dated 2025)
